Data from PMC6481345, “A novel anti-melanoma SRC-family kinase inhibitor” (Oncotarget, 2019).
Entries after “also recorded” stand apart in the source; their conditions may differ.

Assays:
[1] = system: panel of 36 recombinant kinases; test: Radioisotope filter assay, panel of recombinant kinases (summary); format: biochemical; conditions: SRC-family kinases YES1, BLK, LCK, FGR, HCK and FYN; read-out: IC50, range over kinases
Protocol: (§1) The effect of SAB298 on a panel of 36 recombinant kinases, was screed with the radioisotope filter binding assay employing 10 concentrations of the compound with 10 µM ATP (Reaction Biology Corporation, Malvern, PA). In addition, we tested the endogenous kinome response to SAB298 (0.05 µM, 0.5 µM and 5 µM) in lysates from two melanoma cell lines (YUSIV and YUSIK) employing the KiNativ® platform (ActivX Biosciences Inc., La Jolla, CA). KiNativ® is a robust, high performance mass spectrometry (LC-MS^2) assay that uses biotinylated probes to measure relevant changes in the affinity to the ATP-binding sites of 205 native kinases as a function of cellular context. We also validated SAB298 effect on the activity of SRC-family kinases by probing for phosphorylated Y416, the marker of activated SFKs, with anti-IEDNEpYTAR antibodies (also known as Y419, #2101, Cell Signaling Technology, Beverly, MA). In some cases the cells were incubated overnight with 20 µM proteasome inhibitor MG-132 (CAS 133407-82-6, Millipore Sigma, Burlington, MA) to rescue degradation.
Supplemntary Table 3: Radioisotope filter activity assay Tests for SAB298 target protein
*These are results from 10 point dose response test employed with 10 µM ATP.
Supplementary Table 4: Lentiviral vectors MISSION pLKO.1 puromycin bearing SFK shRNA used to test the effect of
specific SFK downregulation on cell proliferation […]

pp38 T180/Y182 = test: Western blot, phospho-p38; format: cell-based, human; conditions: YUSIV melanoma cells
Protocol: (§2) We used standard techniques to identify changes in intracellular signaling in response to various treatments. Briefly, melanoma cells were incubated with test compounds, using DMSO as a control, collected by scraping on ice, and lysed in RIPA buffer supplemented with protease and phosphatase inhibitors (MA #78428, and #78425, respectively, Thermo Fisher Scientific, Waltham, MA). Protein concentrations were measured with the BioRad kit (Bio-Rad Laboratories, Hercules, CA), SDS sample buffer was added, extracts were heated at 95°C, sonicated and centrifuged. Cell extracts (20 µg/lane) were fractionated in 3%–8% or 4–12 % tris-acetate gel (NP0006, NuPAGE Life Technologies). […]

pY416 SFK = test: Western blot, auto-phosphorylated Y416 of SFK; format: cell-based, human; conditions: melanoma cell lines; SAB298 0.5 µM, 5 hrs
Protocol: as §1
We used standard techniques to identify changes in intracellular signaling in response to various treatments. […] Protein concentrations were measured with the BioRad kit (Bio-Rad Laboratories, Hercules, CA), SDS sample buffer was added, extracts were heated at 95°C, sonicated and centrifuged. […]

ERBB2 = ERBB2 (Homo sapiens, UniProt P04626); test: KiNativ in situ kinase profiling in melanoma cell lysates; format: binding; design: we tested the endogenous kinome response to SAB298; host or cells: YUSIV and YUSIK melanoma cell lysates; conditions: for IC50: 3-point dose response
ERBB2, sequence (P04626 23-1255): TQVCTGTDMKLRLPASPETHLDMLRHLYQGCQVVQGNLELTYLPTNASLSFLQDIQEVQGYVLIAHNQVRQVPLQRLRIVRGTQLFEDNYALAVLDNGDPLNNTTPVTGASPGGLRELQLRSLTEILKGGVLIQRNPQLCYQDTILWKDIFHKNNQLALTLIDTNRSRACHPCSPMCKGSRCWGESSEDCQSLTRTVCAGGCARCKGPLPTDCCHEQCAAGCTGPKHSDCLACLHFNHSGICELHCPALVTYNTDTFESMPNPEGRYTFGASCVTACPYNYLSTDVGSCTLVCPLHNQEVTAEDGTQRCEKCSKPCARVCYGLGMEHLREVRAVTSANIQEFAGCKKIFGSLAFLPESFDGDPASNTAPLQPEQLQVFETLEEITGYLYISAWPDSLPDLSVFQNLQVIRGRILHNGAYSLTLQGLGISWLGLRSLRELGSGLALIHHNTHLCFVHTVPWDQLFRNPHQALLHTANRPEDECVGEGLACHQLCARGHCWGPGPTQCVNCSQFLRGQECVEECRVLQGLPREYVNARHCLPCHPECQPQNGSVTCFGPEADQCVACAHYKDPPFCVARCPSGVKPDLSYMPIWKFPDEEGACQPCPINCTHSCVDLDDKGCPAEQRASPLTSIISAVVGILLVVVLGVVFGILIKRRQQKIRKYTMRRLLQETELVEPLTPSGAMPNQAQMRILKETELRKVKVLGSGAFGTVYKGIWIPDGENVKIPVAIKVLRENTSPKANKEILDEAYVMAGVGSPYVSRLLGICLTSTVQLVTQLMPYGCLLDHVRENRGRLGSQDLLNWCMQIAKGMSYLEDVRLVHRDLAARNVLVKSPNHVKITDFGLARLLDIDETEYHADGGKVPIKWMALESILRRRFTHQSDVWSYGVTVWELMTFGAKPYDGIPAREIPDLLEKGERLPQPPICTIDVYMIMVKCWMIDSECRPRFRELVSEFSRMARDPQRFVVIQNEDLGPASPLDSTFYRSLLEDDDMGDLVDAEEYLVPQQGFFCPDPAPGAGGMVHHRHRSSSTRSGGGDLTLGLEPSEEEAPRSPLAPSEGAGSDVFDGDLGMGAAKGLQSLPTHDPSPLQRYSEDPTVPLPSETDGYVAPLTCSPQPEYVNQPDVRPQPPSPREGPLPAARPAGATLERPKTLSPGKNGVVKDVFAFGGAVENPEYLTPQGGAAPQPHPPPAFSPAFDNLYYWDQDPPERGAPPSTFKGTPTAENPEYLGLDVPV
Protocol: as §1

CSK = CSK (Homo sapiens, UniProt P41240); test: as above; format: binding; design: we tested the endogenous kinome response to SAB298; host or cells: YUSIV and YUSIK melanoma cell lysates; conditions: 3-point dose response
CSK, sequence (P41240 whole entry): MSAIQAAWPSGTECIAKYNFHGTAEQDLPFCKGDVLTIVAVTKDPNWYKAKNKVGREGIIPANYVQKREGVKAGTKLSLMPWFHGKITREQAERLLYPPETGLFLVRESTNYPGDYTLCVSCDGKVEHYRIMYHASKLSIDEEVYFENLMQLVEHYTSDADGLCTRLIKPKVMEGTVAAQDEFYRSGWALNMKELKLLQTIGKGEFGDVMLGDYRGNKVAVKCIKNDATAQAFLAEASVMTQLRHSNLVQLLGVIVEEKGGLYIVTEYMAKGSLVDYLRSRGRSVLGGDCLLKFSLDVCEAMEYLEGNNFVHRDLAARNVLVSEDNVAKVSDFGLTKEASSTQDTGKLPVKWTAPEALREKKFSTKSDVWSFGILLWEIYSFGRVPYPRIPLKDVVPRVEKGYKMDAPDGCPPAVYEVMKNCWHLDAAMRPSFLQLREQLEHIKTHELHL
Protocol: as §1

ABL2 = ABL2 (Homo sapiens, UniProt P42684); test: as above; format: binding; design: we tested the endogenous kinome response to SAB298; host or cells: YUSIV and YUSIK melanoma cell lysates; conditions: 3-point dose response
ABL2, sequence (P42684 whole entry): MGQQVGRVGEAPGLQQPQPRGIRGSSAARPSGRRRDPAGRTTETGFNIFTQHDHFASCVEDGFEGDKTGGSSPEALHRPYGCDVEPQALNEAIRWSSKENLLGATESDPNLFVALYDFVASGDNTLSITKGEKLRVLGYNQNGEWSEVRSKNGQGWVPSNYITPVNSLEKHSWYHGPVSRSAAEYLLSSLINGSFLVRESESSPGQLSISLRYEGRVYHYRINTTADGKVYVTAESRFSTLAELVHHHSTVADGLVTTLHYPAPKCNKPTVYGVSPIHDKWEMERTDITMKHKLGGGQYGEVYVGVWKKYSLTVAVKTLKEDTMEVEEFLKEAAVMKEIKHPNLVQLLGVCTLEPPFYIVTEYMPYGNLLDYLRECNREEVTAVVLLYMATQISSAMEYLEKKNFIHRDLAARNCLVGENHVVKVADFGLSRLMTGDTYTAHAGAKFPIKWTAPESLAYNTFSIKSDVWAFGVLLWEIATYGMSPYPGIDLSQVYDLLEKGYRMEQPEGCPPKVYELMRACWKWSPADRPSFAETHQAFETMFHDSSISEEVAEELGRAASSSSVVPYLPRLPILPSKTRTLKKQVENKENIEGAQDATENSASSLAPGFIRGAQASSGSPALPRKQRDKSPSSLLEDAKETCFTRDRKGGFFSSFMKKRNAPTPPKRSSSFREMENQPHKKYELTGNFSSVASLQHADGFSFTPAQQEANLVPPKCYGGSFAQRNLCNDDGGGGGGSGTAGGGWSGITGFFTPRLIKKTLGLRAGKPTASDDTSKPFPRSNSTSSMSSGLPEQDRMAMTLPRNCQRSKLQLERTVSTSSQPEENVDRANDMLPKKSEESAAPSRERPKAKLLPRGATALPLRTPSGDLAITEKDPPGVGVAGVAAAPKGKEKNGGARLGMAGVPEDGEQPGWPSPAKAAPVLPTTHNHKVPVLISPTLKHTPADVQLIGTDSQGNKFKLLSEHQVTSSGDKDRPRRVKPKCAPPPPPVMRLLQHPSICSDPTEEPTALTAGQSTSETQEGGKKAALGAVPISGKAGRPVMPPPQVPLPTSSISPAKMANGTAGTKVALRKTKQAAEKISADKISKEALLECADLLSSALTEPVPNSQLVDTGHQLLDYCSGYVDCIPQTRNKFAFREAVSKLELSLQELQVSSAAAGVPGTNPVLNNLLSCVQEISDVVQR
Protocol: as §1

pY467/199 PIK3R1/3 = test: Western blot, phospho-Y467/199 PIK3R1/3; format: cell-based, human; conditions: melanoma cell lines; 0.5 µM, 5 hrs
Protocol: as §2

LCK = LCK (Homo sapiens, UniProt P06239); test: KiNativ in situ kinase profiling in melanoma cell lysates; format: binding; design: we tested the endogenous kinome response to SAB298; host or cells: YUSIV or YUSIK melanoma cell lysate; conditions: LCK in YUSIV lysate; 3-point dose response
LCK, sequence (P06239 whole entry): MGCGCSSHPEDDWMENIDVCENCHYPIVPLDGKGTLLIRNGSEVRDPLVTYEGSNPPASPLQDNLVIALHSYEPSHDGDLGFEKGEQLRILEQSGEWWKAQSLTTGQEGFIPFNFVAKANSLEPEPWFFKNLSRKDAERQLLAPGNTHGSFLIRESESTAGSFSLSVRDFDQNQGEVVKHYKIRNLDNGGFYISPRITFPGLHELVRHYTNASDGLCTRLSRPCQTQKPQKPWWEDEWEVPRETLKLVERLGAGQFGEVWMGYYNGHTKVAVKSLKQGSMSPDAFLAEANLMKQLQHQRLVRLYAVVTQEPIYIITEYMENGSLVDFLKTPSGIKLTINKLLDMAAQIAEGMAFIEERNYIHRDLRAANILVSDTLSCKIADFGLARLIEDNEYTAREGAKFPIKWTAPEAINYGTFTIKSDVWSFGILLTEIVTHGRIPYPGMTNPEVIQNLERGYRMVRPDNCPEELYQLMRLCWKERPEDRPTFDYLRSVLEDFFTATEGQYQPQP
Protocol: as §1

In the case of Nc1ncnc2c1c(-c1ccc(Oc3ccccc3)cc1)nn2C[C@@H]1SSC[C@@H]1O [SAB298, (3S, 4S)-3-((4-amino-3-(4-phenoxyphenyl)-1H-pyrazolo[3,4-d]pyrimidin-1-yl)methyl)-1,2-dithiolan-4-ol], the IC50 [1] is reported as 0.7 to 21.7 nM, the “pp38 T180/Y182 level” value (pp38 T180/Y182) is reported as “induced p38 T180/Y182 phosphorylation” and the “pY416 SFK level” value (pY416 SFK) is reported as “consistently suppressed; also recorded: downregulated pSFK Y416”. The “higher binding affinity in KiNativ assay compared to radioisotope filtration binding assay” value (ERBB2; ERBB2) was roughly 20 fold, the IC50 (ERBB2; ERBB2 in YUSIK lysate) was 530 nM and the IC50 (ERBB2; ERBB2 in YUSIV lysate) was 410 nM. It also gave an IC50 (CSK; CSK in YUSIK lysate) of 910 nM, an IC50 (CSK; CSK in YUSIV lysate) of 420 nM and an IC50 (ABL2; ABL2 in YUSIK lysate) of 240 nM. The IC50 (ABL2; ABL2 in YUSIV lysate) was 87 nM, the “phospho-Y467/199 PIK3R1/3 level” value (pY467/199 PIK3R1/3) was “suppressed PI3K” and the IC50 (LCK) was 1400 nM.
